Legend:
[1] = molecular target: PGT128; test: Binding of radiolabeled, cyclized, glycosylated peptides to PGT128 (Protein G bead capture, scintillation counting); details: for Kd: after affinity purification with 100 nM PGT128
Method: Radioactive Peptides. For binding analysis, translation (50 μL) was carried out in the presence of PDF/MAP and ^3H-histidine for radiolabeling. The crude peptides were purified by Ni-NTA agarose or, if the sequence contained two cysteine residues, was cyclized while captured on the Ni-NTA resin. The peptide eluents were combined and dialyzed as follows. To the combined eluents was added a solution of Triton X-100 in water for a final concentration of 0.1%. Then, the peptides were dialyzed against 0.1% (v/v) Triton X-100 using a Slide-A-Lyzer™ MINI device (0.1 mL capacity, 3.5 kDa MWCO) (ThermoScientific) at room temperature overnight. The dialyzed peptides were retrieved from the devices, transferring to 0.5 mL centrifuge tubes. The peptide solutions were concentrated to dryness by speedvac for the click reaction.
Sequences were screened for their binding to PGT128 as follows. Each glycosylated peptide (20 fmol) was incubated with either 0 nM or 100 nM PGT128, diluted to 20 μL with 1× selection buffer, tumbling for 1 hour at room temperature. While tumbling, Dynabeads™ Protein G (Invitrogen) were equilibrated with 1× selection buffer as follows. Steps were carried out using a multi-channel pipettor where possible. For each sequence, 5 μL of Protein G bead suspension was transferred to a 0.2 mL PCR tube in a strip. Then, 40 μL of 1× selection buffer was added to the beads. The mixture was resuspended by gently vortexing, spun down briefly, and placed on a magnet for 1 minute. The supernatant was removed, and this wash was repeated two more times. The final supernatant was removed just prior to addition of the incubated peptide/antibody mixture. The mixture was allowed to tumble at room temperature for 30 minutes to capture antibodies and bound peptides. Then, the suspension was briefly spun down, placed on a magnet, and the supernatant was transferred to an individual 0.2 mL PCR tube. To wash the beads, 20 μL of 1× selection buffer was added, gently vortexed, spun down briefly, placed on a magnet for 1 minute, and the wash was transferred to the same PCR tube as the supernatant. This wash step was repeated twice more for a total of three washes, saved altogether with the supernatant as the “unbound” fraction. The beads were then resuspended in 40 μL of denaturing elute buffer. The suspension was heated at 95° C. for 5 minutes to denature antibodies, spun down briefly, placed on a magnet for 1 minute, and the eluent was transferred to an individual 0.2 mL PCR tube. The beads were washed with 40 μL of denaturing elute buffer, and the wash was placed into the same tube as the eluent. The combined eluent and wash represented the “bound” fraction. The beads were resuspended in 40 μL of denaturing elute buffer, vortexed, and directly placed into a vial with liquid scintillation cocktail for radioactivity measurements, though it was not included in calculations of fraction bound. Each of the tubes with the “unbound” and “bound” fractions were placed into vials for LSC. The tube in which the antibody and peptides were incubated were also measured by LSC, but not included in calculations of fraction bound.
Cyclized and glycosylated peptides 91-8 (SEQ ID NO:74) and 91-12 (SEQ ID NO:76) (Heavily Biased library) were subject to PGT128 affinity purification. The sequences (0.3 μmol) were each incubated with 100 nM PGT128, diluted to 40 μL with 1× selection buffer, tumbling for 1 hour at room temperature. The antibody/peptide complexes were captured on equilibrated Protein G (10 μL) and washed as described previously. The bound fraction was then eluted as follows. The beads were resuspended in 10 μL of 1× selection buffer and heated at 70° C. for 30 minutes. Then, the suspension was chilled on ice for 5 minutes, and tumbled at room temperature for 10 minutes. The eluent was separated, and the beads were washed with 10 μL of 1× selection buffer. The wash was combined with the eluent as the “bound” fraction. […]

[2] = Solubility seen during reduction and cyclization of the synthetic peptide; assay type: physicochemical; details: reduced peptide in 200 mM NH4HCO3 with 10 mM TCEP, not glycosylated
Method: Then, 9 mg of crude peptide was reduced and cyclized as follows. Each peptide (1 mM final concentration) was dissolved in 200 mM NH4HCO3 with 10 mM TCEP for a reaction volume of 1332 μL. The reactions were tumbled at room temperature for 50 minutes. At that time, the reactions were buffer-exchanged to remove excess TCEP. […] The pellet was washed six times with 1 mL portions of 200 mM NH4HCO3. Portions of the H-22 reaction were transferred to Centricon-500 spin columns (MWCO 2 kDa) with 300 μL of 200 mM NH4HCO3. The filters were spun down and washed six times with 300 μL of 200 mM NH4HCO3. The solutions were then diluted to 1322 μL with 200 mM NH4HCO3, 5.95 mL of water, and 5.68 mL of MeCN in a 15 mL conical tube. Then, 529 μL of a solution of 5 mM m-dibromoxylene in MeCN was added, for a final concentration of 0.2 mM of m-dibromoxylene and 0.1 mM peptide. The cyclization reactions were tumbled at room temperature and monitored by LC-MS. After 40 minutes, H22 was complete. At that time, 132 μL of 5 mM m-dibromoxylene in MeCN was added to the H-1 reaction to push it to completion (total reaction time: 140 minutes). The reactions were quenched by lowering the pH with formic acid. The solutions were concentrated under reduced pressure and lyophilized overnight.

[3] = before PGT128 affinity purification
[4] = following PGT128 affinity purification

Sequence	Kd [1] [nM]	maximum fraction bound [1, 3] [%]	maximum fraction bound [1, 4] [%]	solubility [2]
MAHYSXNHXRHPLYPSVNHRXSYPRIGLLSRIGDIRSASCXLRCFRXRST [91-8cy]	2.73 ± 0.36	69	85	–
YTEKHNGIGDIRPAICXNSKNQNHRCNHYQIKLYIHXLXRLPHNYRNS [H-1, Top round 12 PGT128 cluster, Heavily Biased library; made by SPPS with C-terminal biotinyl-lysine]	–	–	–	poor solubility
XYPNTLNNVYQKCNKYNVIGDIRXARCXHXEHFSSQDQPKSKHKRRYKGF [91-12cy]	7.41 ± 1.29	54	74	–

Source: patent US12247320B2, “Multivalent glycopeptides that tightly bind to carbohydrate-binding monoclonal antibody family PGT128” (BRANDEIS UNIVERSITY, priority 2018, dated 2025)
